Measurements reported in US8658801B2, “Pesticides containing a bicyclic bisamide structure” (Syngenta Crop Protection, LLC, priority 2006, dated 2014).

Legend:
[1] = system: Spodoptera littoralis (Egyptian Cotton Leafworm); test: Example B1: activity against Spodoptera littoralis, larvicide, feeding/residual contact, preventive (cotton leaf discs); type: in vivo; details: foliar, 72 h, 3 days after treatment, L1 larvae
Excerpt: Activity Against Spodoptera littoralis (Egyptian Cotton Leafworm)
(§1) (Larvicide, Feeding/Residual Contact Activity, Preventive)
The samples are checked for mortality, repellent effect, feeding behaviour, and growth regulation 3 days after treatment. In this test, compounds listed in Table P above show good activity. In particular compounds P.1, P.2, P.3, P.4, P.5, P.6, P.7, P.9, P.10, P.11, P.12, P.13, P.15, P.16, P.17, P.18, P.19, P.20, P.21, P.22, P.23, P.24, P.25, P.26, P.27, P.28, P.29, P.30, P.31, P.32, P.33, P.34, P.35, P.36, P.37, P.38, P.39, P.40, P.41, P.42, P.43, P.44, P.45, P.46, P.47, P.48, P.49, P.50, P.51, P.52, P.53, P.54, P.55, P.56, P.57, P.58, P.59, P.60, P.61, P.63, P.64, P.67, P.68 and P.70 show an activity of over 80% at a concentration of 400 ppm.

[2] = system: Heliothis virescens (Tobacco Budworm); test: Example B2: activity against Heliothis virescens, ovo-larvicide, feeding/contact, curative; type: in vivo; details: 96 h, 4 days incubation, eggs 0-24 h old
Protocol: Activity Against Heliothis virescens (Tobacco Budworm)
(Ovo-Larvicide, Feeding/Contact Activity, Curative)
Eggs (0-24 h old) are placed in 24-well microtiter plate on artificial diet and treated with test solutions by pipetting. After an incubation period of 4 days, samples are checked for egg mortality, larval mortality, and growth regulation.

[3] = system: Plutella xylostella (Diamond Back Moth); test: Example B3: Plutella xylostella, larvicide, feeding/residual contact, preventive (artificial diet MTP); type: in vivo; details: 120 h, 5 days incubation, L2 larvae
Protocol: Plutella xylostella (Diamond Back Moth)
as §1
24-well microtiter plate (MTP) with artificial diet is treated with test solutions by pipetting. After drying, the MTP's are infested with larvae (L2)(10-15 per well). After an incubation period of 5 days, samples are checked for larval mortality, antifeedant and growth regulation. In this test, compounds listed in Table P above show good activity. In particular compounds P.1, P.2, P.3, P.4, P.5, P.6, P.7, P.9, P.10, P.11, P.12, P.13, P.15, P.16, P.17, P.18, P.19, P.20, P.21, P.22, P.23, P.25, P.26, P.27, P.28, P.29, P.30, P.31, P.32, P.33, P.34, P.35, P.36, P.37, P.38, P.39, P.40, P.41, P.42, P.43, P.44, P.46, P.47, P.48, P.49, P.50, P.51, P.52, P.53, P.54, P.55, P.56, P.57, P.58, P.59, P.60, P.61, P.63, P.64, P.67, P.68, P.69 P.70, P.72, P.74, P.77, P78 and P.79 show an activity of over 80% at a concentration of 400 ppm.

[4] = system: Diabrotica balteata (Corn Root Worm); test: Example B4: Diabrotica balteata, larvicide, feeding/residual contact, preventive; type: in vivo; details: 120 h, 5 days incubation, L2 larvae
Protocol: Diabrotica balteata (Corn Root Worm)
as §1
After drying, the MTP's are infested with larvae (L2)(6-10 per well). After an incubation period of 5 days, samples are checked for larval mortality, antifeedant and growth regulation. In this test, compounds listed in Table P above show good activity. In particular compounds P.1, P.2, P.5, P.6, P.10, P.11, P.12, P.13, P.15, P.16, P.17, P.18, P.19, P.24, P.25, P.27, P.28, P.29, P.30, P.31, P.33, P.34, P.35, P.37, P.38, P.39, P.42, P.43, P.44, P.45, P.46, P.47, P.48, P.49, P.50, P.52, P.53, P.65, P.67, P.68, P.69, P.70, P.71, P.72, P.75, P.78, and P.79 show an activity of over 80% at a concentration of 400 ppm.

[5] = system: Frankliniella occidentalis (Western Flower Thrips); test: Example B9: activity against Frankliniella occidentalis (bean leaf discs or bean plants); type: in vivo; details: foliar, 6 days (leaf discs) or 14 days (plants) after infestation
Protocol: Activity Against Frankliniella occidentalis (Western Flower Thrips)
Bean leaf discs on agar in petri dishes or bean plants in a spray chamber are treated with diluted test solutions. After drying leaf discs are cut and placed in plastic cups on the surface of an agar layer and infested with mixed population. 6 days (leaf discs) or 14 days (plants) after the infestation, samples are checked for reduction of treated population and compared to the non treated population.

[6] = system: Myzus persicae (Green Peach Aphid); test: Example B6: activity against Myzus persicae, mixed population, systemic/feeding, curative (pea seedling roots); details: 144 h, read-out: activity
[7] = system: Myzus persicae (Green Peach Aphid); test: Example B5: activity against Myzus persicae, mixed population, feeding/residual contact, preventive (sunflower leaf discs); details: foliar, 144 h, read-out: activity
[8] = system: Thrips tabaci (Onion Thrips); test: Example B7: activity against Thrips tabaci, mixed population, feeding/residual contact, preventive; details: 144 h, read-out: activity
[9] = system: Aphis craccivora (Pea Aphid); test: Example B11: activity against Aphis craccivora, mixed population, systemic/feeding; type: in vivo; details: 144 h, 6 days, roots in test solution (systemic)
Excerpt: Activity Against Aphis craccivora (Pea Aphid)
(Mixed Population, Systemic/Feeding)
6 days later, samples are checked for mortality.

Measured: pest or weed control at 400 ppm

CC(C)(CS(C)(=O)=O)NC(=O)c1c(NC(=O)c2cc(C(F)(F)F)nn2-c2ncccc2Cl)c(Cl)cc2cn[nH]c12 [P.15]
not listed: [8] | [9]
> 80%: all other assays above

CNC(=O)c1c(NC(=O)c2cc(C(F)(F)F)nn2-c2ncccc2Cl)c(Br)cc2cn[nH]c12 [P.17]
not listed: [8] | [9]
> 80%: all other assays above

CNC(=O)c1c(NC(=O)c2cc(C(F)(F)F)nn2-c2ncccc2Cl)c(C)cc2nc(C)ccc12 [P.22]
> 80%: [1] | [2] | [3] | [5]

CC(C)NC(=O)c1c(NC(=O)c2cc(C(F)(F)F)nn2-c2ncccc2Cl)c(C#N)cc2cn[nH]c12 [P.25]
not listed: [5] | [6] | [9]
> 80%: all other assays above

COc1cc(C(=O)Nc2c(Br)cc3cn[nH]c3c2C(=O)NCC2CC2)n(-c2ncccc2Cl)n1 [P.36]
> 80%: [1] | [2] | [3] | [6] | [7]

O=C(NC1(C2CC2)CC1)c1c(NC(=O)c2cc(OCC(F)(F)F)nn2-c2ncccc2Cl)c(Cl)cc2cn[nH]c12 [P.48]
not listed: [9]
> 80%: all other assays above

CCNC(=O)c1c(NC(=O)c2cc(OC)nn2-c2ncccc2Cl)c(Br)cc2cn[nH]c12 [P.50]
not listed: [5] | [9]
> 80%: all other assays above

COc1cc(C(=O)Nc2c(Br)cc3cn[nH]c3c2C(=O)NC(C)(C)CSC)n(-c2ncccc2Cl)n1 [P.51]
not listed: [4] | [5] | [9]
> 80%: all other assays above

COc1cc(C(=O)Nc2c(C#N)cc3cn[nH]c3c2C(=O)NC2(C3CC3)CC2)n(-c2ncccc2Cl)n1 [P.53]
not listed: [5] | [9]
> 80%: all other assays above

COc1cc(C(=O)Nc2c(Br)cc3cn[nH]c3c2C(=O)NC(C)(C)CS(C)(=O)=O)n(-c2ncccc2Cl)n1 [P.54]
not listed: [4]
> 80%: all other assays above

COc1cc(C(=O)Nc2c(C#N)cc3cn[nH]c3c2C(=O)NC(C)C)n(-c2ncccc2Cl)n1 [P.55]
not listed: [4] | [5] | [9]
> 80%: all other assays above

COc1cc(C(=O)Nc2c(Cl)cc3cn[nH]c3c2C(=O)NC(C)(C)CSC)n(-c2ncccc2Cl)n1 [P.57]
not listed: [4] | [5] | [9]
> 80%: all other assays above

CCNC(=O)c1c(NC(=O)c2cc(OC)nn2-c2ncccc2Cl)c(Cl)cc2cn[nH]c12 [P.58]
not listed: [4] | [5] | [9]
> 80%: all other assays above

COc1cc(C(=O)Nc2c(Cl)cc3cn[nH]c3c2C(=O)NC2(C)CSC2)n(-c2ncccc2Cl)n1 [P.59, 5-chloro-6-{[2-(3-chloro-pyridin-2-yl)-5-methoxy-2H-pyrazole-3-carbonyl]-amino}-1H-indazole-7-carboxylic acid (3-methyl-thietan-3-yl)-amide]
not listed: [4] | [5] | [9]
> 80%: all other assays above

Cc1cc2cn[nH]c2c(C(=O)NC(C)C)c1NC(=O)c1cc(Br)nn1-c1ncccc1Cl [P.65, 6-{[5-bromo-2-(3-chloro-pyridin-2-yl)-2H-pyrazole-3-carbonyl]-amino}-5-methyl-1H-indazole-7-carboxylic acid isopropylamide]
> 80%: [4] | [8] | [6]

Cc1cc2cn[nH]c2c(C(=O)NC2(C3CC3)CC2)c1NC(=O)c1cc(OCC(F)(F)F)nn1-c1ncccc1Cl [P.70, 6-{[2-(3-chloro-pyridin-2-yl)-5-(2,2,2-trifluoro-ethoxy)-2H-pyrazole-3-carbonyl]-amino}-5-methyl-1H-indazole-7-carboxylic acid bicyclopropyl-1-ylamide]
not listed: [9]
> 80%: all other assays above

Cc1cc2cn[nH]c2c(C(=O)NC2(C3CC3)CC2)c1NC(=O)c1cc(Br)nn1-c1ncccc1Cl [P.71, 6-{[5-bromo-2-(3-chloro-pyridin-2-yl)-2H-pyrazole-3-carbonyl]-amino}-5-methyl-1H-indazole-7-carboxylic acid bicyclopropyl-1-ylamide]
> 80%: [2] | [4] | [8] | [6]
